Results: publication PMC10006169, “A phase I trial of LXS196, a protein kinase C (PKC) inhibitor, for metastatic uveal melanoma” (British Journal of Cancer, 2023)
Where “and” joins values, the source holds several entries; their conditions need not be identical. Equal values may be shown once.

Test system: patients with MUM
Test: Adverse events suspected to be study drug related (NCI-CTCAE v4.03)
Type: in vivo, human
Conditions: for Alanine aminotransferase increased / Aspartate aminotransferase increased / Asthenia / Blood creatinine increased / Constipation / Diarrhoea / Dry skin / Fatigue / Hypotension / Nausea / Number of patients with ≥1 adverse event / Rash / Vomiting: suspected drug related
Description: Routine safety assessments, including laboratory assessments, physical examinations, vital signs and electrocardiograms (ECGs), were conducted at regular intervals throughout the study and more frequently as needed following patient assessment by the treating physician. Adverse events (AEs) were assessed continuously according to the National Cancer Institute Common Terminology Criteria for Adverse Events (NCI-CTCAE) v4.03.

[1] = 300 mg BID (RDE), n=18, All grades

With `CC1(N)CCN(c2cccnc2NC(=O)c2nc(-c3ncccc3C(F)(F)F)cnc2N)CC1` [LXS196] the “Dry skin, all grades” value (All BID) was 6 (20.0) n (%), the “Dry skin, grade ≥3” value (All BID) was 0 n (%) and the “Fatigue, all grades” value (All BID) was 4 (13.3) n (%). The “Fatigue, grade ≥3” value (All BID) was 0 n (%), the “Hypotension, all grades” value (All BID) was 7 (23.3) n (%) and the “Nausea, all grades” value (All BID) was 19 (63.3) n (%). The “Nausea, grade ≥3” value (All BID) was 0 n (%), the “Patients with ≥1 AE, all grades” value (All BID) was 28 (93.3) n (%) and the “Patients with ≥1 AE, grade ≥3” value (All BID) was 6 (20.0) n (%). For the same compound, the “Rash, all grades” value (All BID) was 5 (16.7) n (%), the “Rash, grade ≥3” value (All BID) was 0 n (%) and the “Vomiting, all grades” value (All BID) was 9 (30.0) n (%). The “Vomiting, grade ≥3” value (All BID) was 0 n (%), the “ALT increased, all grades” value (All QD) was 7 (18.4) n (%) and the “ALT increased, grade ≥3” value (All QD) was 2 (5.3) n (%). The “AST increased, all grades” value (All QD) was 5 (13.2) n (%), the “AST increased, grade ≥3” value (All QD) was 2 (5.3) n (%) and the “Asthenia, all grades” value (All QD) was 6 (15.8) n (%). For the same compound, the “Asthenia, grade ≥3” value (All QD) was 0 n (%), the “Blood creatinine increased, all grades” value (All QD) was 2 (5.3) n (%) and the “Blood creatinine increased, grade ≥3” value (All QD) was 0 n (%). The “Constipation, all grades” value (All QD) was 4 (10.5) n (%), the “Constipation, grade ≥3” value (All QD) was 0 n (%) and the “Diarrhoea, all grades” value (All QD) was 15 (39.5) n (%). For the same compound, the “Diarrhoea, grade ≥3” value (All QD) was 0 n (%), the “Dry skin, all grades” value (All QD) was 2 (5.3) n (%) and the “Dry skin, grade ≥3” value (All QD) was 0 n (%). For the same compound, the “Fatigue, all grades” value (All QD) was 10 (26.3) n (%), the “Fatigue, grade ≥3” value (All QD) was 0 n (%) and the “Hypotension, all grades” value (All QD) was 8 (21.1) n (%). The “Nausea, all grades” value (All QD) was 26 (68.4) n (%), the “Nausea, grade ≥3” value (All QD) was 1 (2.6) n (%) and the “Patients with ≥1 AE, all grades” value (All QD) was 35 (92.1) n (%). The “Patients with ≥1 AE, grade ≥3” value (All QD) was 11 (28.9) n (%), the “Rash, all grades” value (All QD) was 3 (7.9) n (%) and the “Rash, grade ≥3” value (All QD) was 0 n (%). The “Vomiting, all grades” value (All QD) was 12 (31.6) n (%), the “Vomiting, grade ≥3” value (All QD) was 1 (2.6) n (%) and the “ALT increased, all grades” value (All patients) was 15 (22.1) n (%). For the same compound, the “ALT increased, grade ≥3” value (All patients) was 4 (5.9) n (%), the “AST increased, all grades” value (All patients) was 11 (16.2) n (%) and the “AST increased, grade ≥3” value (All patients) was 4 (5.9) n (%). For the same compound, the “Asthenia, all grades” value (All patients) was 13 (19.1) n (%), the “Asthenia, grade ≥3” value (All patients) was 0 n (%) and the “Blood creatinine increased, all grades” value (All patients) was 7 (10.3) n (%). For the same compound, the “Blood creatinine increased, grade ≥3” value (All patients) was 0 n (%), the “Constipation, all grades” value (All patients) was 7 (10.3) n (%) and the “Constipation, grade ≥3” value (All patients) was 0 n (%). For the same compound, the “Diarrhoea, all grades” value (All patients) was 31 (45.6) n (%), the “Diarrhoea, grade ≥3” value (All patients) was 1 (1.5) n (%) and the “Dry skin, all grades” value (All patients) was 8 (11.8) n (%). The “Dry skin, grade ≥3” value (All patients) was 0 n (%), the “Fatigue, all grades” value (All patients) was 14 (20.6) n (%) and the “Fatigue, grade ≥3” value (All patients) was 0 n (%). The “Hypotension, all grades” value (All patients) was 15 (22.1) n (%), the “Hypotension, grade ≥3” value (All patients) was 6 (8.8) n (%) and the “Nausea, all grades” value (All patients) was 45 (66.2) n (%). The “Nausea, grade ≥3” value (All patients) was 1 (1.5) n (%), the “Patients with ≥1 AE, all grades” value (All patients) was 63 (92.6%) n (%) and 63 (92.6) n (%) and the “Patients with ≥1 AE, grade ≥3” value (All patients) was 17 (25.0%) n (%) and 17 (25.0) n (%). The “Rash, all grades” value (All patients) was 8 (11.8) n (%), the “Rash, grade ≥3” value (All patients) was 0 n (%) and the “Vomiting, all grades” value (All patients) was 21 (30.9) n (%). The “Vomiting, grade ≥3” value (All patients) was 1 (1.5) n (%), the Alanine aminotransferase increased (200 mg BID, n=6, All grades) was 0 n (%) and the Aspartate aminotransferase increased (200 mg BID, n=6, All grades) was 0 n (%). The Asthenia (200 mg BID, n=6, All grades) was 1 (16.7) n (%), the Blood creatinine increased (200 mg BID, n=6, All grades) was 3 (50.0) n (%) and the Constipation (200 mg BID, n=6, All grades) was 0 n (%). The Diarrhoea (200 mg BID, n=6, All grades) was 2 (33.3) n (%), the Dry skin (200 mg BID, n=6, All grades) was 1 (16.7) n (%) and the Fatigue (200 mg BID, n=6, All grades) was 0 n (%). For the same compound, the Hypotension (200 mg BID, n=6, All grades) was 0 n (%), the Nausea (200 mg BID, n=6, All grades) was 2 (33.3) n (%) and the “Number of patients with ≥1 adverse event” value (200 mg BID, n=6, All grades) was 5 (83.3) n (%). The Rash (200 mg BID, n=6, All grades) was 0 n (%), the Vomiting (200 mg BID, n=6, All grades) was 0 n (%) and the Alanine aminotransferase increased (200 mg BID, n=6, Grade ≥3) was 0 n (%). The Aspartate aminotransferase increased (200 mg BID, n=6, Grade ≥3) was 0 n (%), the Asthenia (200 mg BID, n=6, Grade ≥3) was 0 n (%) and the Blood creatinine increased (200 mg BID, n=6, Grade ≥3) was 0 n (%). For the same compound, the Constipation (200 mg BID, n=6, Grade ≥3) was 0 n (%), the Diarrhoea (200 mg BID, n=6, Grade ≥3) was 0 n (%) and the Dry skin (200 mg BID, n=6, Grade ≥3) was 0 n (%). The Fatigue (200 mg BID, n=6, Grade ≥3) was 0 n (%), the Hypotension (200 mg BID, n=6, Grade ≥3) was 0 n (%) and the Nausea (200 mg BID, n=6, Grade ≥3) was 0 n (%). The “Number of patients with ≥1 adverse event” value (200 mg BID, n=6, Grade ≥3) was 0 n (%), the Rash (200 mg BID, n=6, Grade ≥3) was 0 n (%) and the Vomiting (200 mg BID, n=6, Grade ≥3) was 0 n (%). For the same compound, the Alanine aminotransferase increased [1] was 5 (27.8) n (%), the Aspartate aminotransferase increased [1] was 3 (16.7) n (%) and the Asthenia [1] was 4 (22.2) n (%). For the same compound, the Blood creatinine increased [1] was 2 (11.1) n (%), the Constipation [1] was 1 (5.6) n (%) and the Diarrhoea [1] was 11 (61.1) n (%). For the same compound, the Dry skin [1] was 4 (22.2) n (%).
